These are literature values, as cited in patent US20200206299A1, “INHIBITORS OF BETA-ARRESTIN-NEUROKININ 1 RECEPTOR INTERACTIONS FOR THE TREATMENT OF PAIN” (priority 2016, published 2020).

In the data set the test system is capsaicin-evoked hyperalgesia. To be noted: intrathecal MEK inhibitor; Ji et al. 2002 is cited.

As to `N#CC(=C(/N)Sc1ccccc1N)/C(C#N)=C(\N)Sc1ccccc1N` [U0126], the capsaicin-evoked hyperalgesia entry is reported as “inhibited”.
